The subject of data set [1] is mechanical allodynia induced by sciatic nerve ligation. Put plainly: Sciatic nerve ligation assay of neuropathic pain (mechanical allodynia, modified Randall-Selitto algesiometer). The format is in vivo, rat. As to conditions: for effect on mechanical allodynia induced by sciatic nerve ligation: in words, Example 5; for ID50 Antinociception Rat Ligation: reversal of mechanical allodynia 7 days after ligation, compound given 1 h before test, route given per compound.

For data set [2], the system named is mechanical hyperalgesia induced by carrageenan. Put plainly: Carrageenan-induced mechanical hyperalgesia assay (modified Ugo Basile Algesiometer). The format is in vivo, rat. As to conditions: for ID50 Antinociception Rat Carrageenan: inhibition of mechanical hyperalgesia 3 h after carrageenan 4.5 mg i.pl., compound given 2 h after carrageenan, route given per compound. The procedure:
(§1) Anti-algesic activity was assessed using an assay of neuropathic pain in rats (sciatic nerve ligation) and in a carrageenan-induced hyperalgesia assay. Motor impairment was measured using an accelerating rotarod.
(§2) For sciatic nerve ligation, male Sprague Dawley rats (180-220 g) were anaesthetised with isofluorane, the left sciatic nerve exposed and 4 chromic catgut (4.0) ligatures were tied loosely around the nerve (spaced 1-2 mm apart) immediately proximal to the point of trifurcation. In sham-operated animals, the same dissection was performed but without ligation. Responses to mechanical pressure were assessed 7 days after ligation using a modified Randall-Selitto algesiometer in which constant force of 40 mmHg was applied to the hind paw and the latency to struggle was recorded as the reaction time. Mechanical allodynia was defined as the difference in reaction time for sham and ligature rats. Reaction times for drug treated rats were expressed as a percentage of this response. Compounds were administered 1 h before the test. In the carrageenan-induced hyperalgesia assay, male Sprague Dawley rats (100-120 g) received an intraplantar injection of carrageenan (4.5 mg) and mechanical thresholds were determined 3 h later using a modified Ugo Basile Algesiometer. Control rats received saline (0.15 ml i.pl.). Hyperalgesia was defined as the difference in vocalisation threshold for saline- and carrageenan-injected rats. Paw pressure scores for drug-treated rats were expressed as a percentage of this response. Compounds were administered 2 h after carrageenan. To determine the effects of the compounds on motor co-ordination, male Sprague Dawley rats (160-180 g) were first trained to remain for 120 s on the rotarod apparatus revolving at 12 r.p.m. on the morning before the test. […] Lamotrigine, gabapentin and (±)-CP-101,606 were suspended in 0.5% methocel and administered orally (1 ml/kg). Ifenprodil, L-701.324, L-687,414 and (±)-Ro25-6981 were dissolved or suspended in 0.5% methocel and administered intraperitoneally (1 ml/kg). MK-801 was dissolved in distilled water and given i.p. (1 ml/kg). Doses of compounds refer to the free base.
(§3) Male Sprague Dawley rats (100-120 g) received an intraplantar injection of carrageenan (4.5 mg) and mechanical thresholds were determined 3 h later using a modified Ugo Basile Algesiometer. Control rats received saline (0.15 ml i.pl.). Hyperalgesia was defined as the difference in vocalisation threshold for saline- and carrageenan-injected rats. Paw pressure scores for drug-treated rats were expressed as a percentage of this response. Compounds were administered 2 h after carrageenan. To determine the effects of morphine and (±)-Ro25-6981 on motor co-ordination, male Sprague Dawley rats (160-180 g) were first trained to remain for 120 s on the rotarod apparatus revolving at 12 r.p.m. on the morning before the test.
(§4) (±)-Ro25-6981 was suspended in 0.5% methocel and administered intraperitoneally (1 ml/kg). Morphine HCl was dissolved in saline and given subcutaneously (1 ml/kg). Doses of compounds refer to the free base.

Data set [3] concerns rotarod performance (motor co-ordination). Put plainly: Motor co-ordination and behaviour, accelerating rotarod. As to conditions: for ID50 Motor Impairment Rat Rotarod: accelerating rotarod 1 h after drug, route given per compound. Here is the method:
as §1, §2, §3, §4
In general terms: In the rotarod test animals must keep their balance on a rotating rod.

Data set [4] deals with rat hyperalgesic and nociceptive tests. As to conditions: at doses showing no behavioural abnormality; cited from earlier work.

Results on ten compounds are retold here after patent US6538008B1, “Combination of a selective NMDA NR2B antagonist and an opioid analgesic” (Merck Sharpe & Dohme Limited, priority 1998, dated 2003).

Where “and” joins values, the source holds several entries; their conditions need not be identical. Equal values may be shown once.

Regarding `CC(C(O)c1ccc(O)cc1)N1CCC(Cc2ccccc2)CC1` (centres unmarked) [Ifenprodil, ifenprodil], in data set [1], the “effect on mechanical allodynia induced by sciatic nerve ligation” value (“effect on mechanical allodynia induced” for short) is on record as “reversed mechanical allodynia” and the “ID50 Antinociception Rat Ligation” value is 9.5 mg/kg. In addition, the “ID50 Antinociception Rat Carrageenan” value in data set [2] is listed as 17 mg/kg. Besides, in data set [3] (50 mg/kg), the “adverse effects observed (ptosis, piloerection, hypoactivity, hyperventilation)” value is given as “severe adverse effects” and the “impairment in rotarod performance” value was “approximately 50%”. Besides, in data set [3], the “ID50 Motor Impairment Rat Rotarod” value is “≧50 mg/kg”.
As to `C[C@@H](CN1CCC(Cc2ccccc2)CC1)[C@@H](O)c1ccc(O)cc1` (racemic) [(±)-Ro25-6981], in data set [1], the “effect on mechanical allodynia induced” value is given as “dose-dependently reversed mechanical allodynia” and the “ID50 Antinociception Rat Ligation” value amounted to 3.8 mg/kg. In addition, in data set [2] (1 mg/kg i.p., alone), the “antinociception in carrageenan-induced hyperalgesia” value is “did not cause significant antinociception”. For the same compound, in data set [2] (10 and 30 mg/kg i.p., alone (FIG. 1)), the “effect on mechanical hyperalgesia induced by carrageenan” value was “dose-dependent reversal of mechanical hyperalgesia”. Moreover, the “ID50 Antinociception Rat Carrageenan” value in data set [2] is recorded as 5.7 mg/kg. In data set [3] (1 mg/kg i.p. alone (FIG. 3)), the “effect on rotarod performance” value is recorded as “no effect”. Moreover, the “inhibition of rotarod performance” value in data set [3] (100 mg/kg i.p.) worked out at 47%. In data set [3], the “ID50 Motor Impairment Rat Rotarod” value is listed as “≧100 mg/kg”.
Regarding `CN1CC[C@]23c4c5ccc(O)c4O[C@H]2[C@@H](O)C=C[C@H]3[C@H]1C5` [morphine], the “effect on mechanical hyperalgesia induced by carrageenan” value in data set [2] (1 mg/kg s.c., alone (FIG. 2)) is recorded as “completely reversed mechanical hyperalgesia”; in data set [2] (0.1 and 0.3 mg/kg s.c., alone (FIG. 2)), “without effect”. Moreover, the entries for the “percent inhibition of hyperalgesia” value in data set [2] (morphine 0.1 mg/kg s.c. alone) and in data set [2] (morphine 0.3 mg/kg s.c. alone) were 11% and 31%, respectively. Besides, the “effect on rotarod performance” value in data set [3] (3 mg/kg s.c. alone (FIG. 3)) was “significant impairment”; in data set [3] (0.3 and 1 mg/kg s.c. alone (FIG. 3)) it was “no effect”.
Consider `C[C@]12N[C@H](Cc3ccccc31)c1ccccc12` [MK-801], for which, in data set [1], the “effect on mechanical allodynia induced” value is listed as “dose-dependently reversed mechanical allodynia” and the “ID50 Antinociception Rat Ligation” value was found to be 0.19 mg/kg. In data set [2], the “ID50 Antinociception Rat Carrageenan” value is on record as 0.21 mg/kg. The behavioural effects observed result in data set [3] (0.3 and 1 mg/kg doses) is “Body rolling. and head weaving”. In addition, the “ID50 Motor Impairment Rat Rotarod” value in data set [3] stood at 0.22 mg/kg.
With (±)-CP-101,606, in data set [1], the “effect on mechanical allodynia induced” value is “dose-dependently reversed mechanical allodynia” and the “ID50 Antinociception Rat Ligation” value is listed as 6.1 mg/kg. Also, the “ID50 Antinociception Rat Carrageenan” value in data set [2] amounted to 37 mg/kg. The “rotarod latency compared to vehicle-treated rats” value in data set [3] (300 mg/kg dose) is on record as “significant increase in latency”. Besides, in data set [3], the “ID50 Motor Impairment Rat Rotarod” value is given as more than 300 mg/kg. Also, the “effect on motor performance on the rotarod” value in data set [3] (up to 300 mg/kg p.o.) is recorded as “did not inhibit motor performance”.
For `O=c1[nH]c2cc(Cl)ccc2c(O)c1-c1cccc(Oc2ccccc2)c1` [L-701,324], in data set [1], the “effect on mechanical allodynia induced” value is reported as “dose-dependently reversed mechanical allodynia” and the “ID50 Antinociception Rat Ligation” value is 2.6 mg/kg. Further, in data set [2], the “ID50 Antinociception Rat Carrageenan” value came to 2.5 mg/kg. Further, the behavioural effects observed entry in data set [3] (10 and 30 mg/kg i.p.) is “ataxia was evident”. Further, the “ID50 Motor Impairment Rat Rotarod” value in data set [3] worked out at 1.9 mg/kg.
For the compound `Nc1nnc(-c2cccc(Cl)c2Cl)c(N)n1` [Lamotrigine, lamotrigine], in data set [1], the “effect on mechanical allodynia induced” value is given as “reversed mechanical allodynia” and the “ID50 Antinociception Rat Ligation” value is 11 mg/kg. In data set [2], the “ID50 Antinociception Rat Carrageenan” value was found to be 207 mg/kg. In data set [3] (500 mg/kg p.o.), the “inhibition in the time spent on the rotarod” value came to 40% and the “other effects observed besides rotarod inhibition” value is recorded as “no other effects were observed”. In addition, the “ID50 Motor Impairment Rat Rotarod” value in data set [3] is recorded as more than 500 mg/kg.
Consider `C[C@@H]1CN(O)C(=O)[C@@H]1N` [L-687,414], for which, in data set [1], the “effect on mechanical allodynia induced” value is “dose-dependently reversed mechanical allodynia” and the “ID50 Antinociception Rat Ligation” value worked out at 9.8 mg/kg. Further, in data set [2], the “ID50 Antinociception Rat Carrageenan” value worked out at 50 mg/kg. Further, the behavioural effects observed result in data set [3] (100 and 300 mg/kg i.p.) is “body rolling and ataxia”. Besides, the “ID50 Motor Impairment Rat Rotarod” value in data set [3] was 53.3 mg/kg and 53 mg/kg.
With `C[C@@H]([C@@H](O)c1ccc(O)cc1)N1CCC(O)(c2ccccc2)CC1` [CP-101,606], in data set [4], the analgesic activity entry is given as “Potent analgesic activity”.
`NCC1(CC(=O)O)CCCCC1` [Gabapentin, gabapentin]: in data set [1], the “effect on mechanical allodynia induced” value is given as “reversed mechanical allodynia” and the “ID50 Antinociception Rat Ligation” value is listed as 87 mg/kg. Further, the “ID50 Antinociception Rat Carrageenan” value in data set [2] amounted to 50 mg/kg. For the same compound, in data set [3], the “ID50 Motor Impairment Rat Rotarod” value turned out to be 133 mg/kg. Further, the behavioural effects observed entry in data set [3] (doses of 30-300 mg/kg) is listed as “motor impairments (ataxia)”.
